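Five concentrations, 48 hours, 96-well plates. Abbreviation: GI50, concentration required for 50% inhibition of growth. TGI is the concentration that stops growth completely.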
Tests used:
Test in all cases: inhibition of tumour cell growth, NCI panel, 48 h
HCT-116 colon = system: HCT-116 colon
SF-295 CNS = system: SF-295 CNS
SF-539 CNS = system: SF-539 CNS
NCI-H226 lung = system: NCI-H226 lung
OVCAR-3 ovarian = system: OVCAR-3 ovarian
SN12C renal = system: SN12C renal
HL-60(TB) leukemia = system: HL-60(TB) leukemia
UO-31 renal = system: UO-31 renal
SK-OV-3 ovarian = system: SK-OV-3 ovarian
HS 578T breast = system: HS 578T breast
CAKI-1 renal = system: CAKI-1 renal
OVCAR-5 ovarian = system: OVCAR-5 ovarian
MDA-MB-231 breast = system: MDA-MB-231 breast
A549 NSCLC = system: A549 NSCLC
HT29 colon = system: HT29 colon
SW-620 colon = system: SW-620 colon
RPMI-8226 leukemia = system: RPMI-8226 leukemia
LOX IMVI melanoma = system: LOX IMVI melanoma
CCRF-CEM leukemia = system: CCRF-CEM leukemia
786-0 renal = system: 786-0 renal
KM12 colon = system: KM12 colon
SNB-75 CNS = system: SNB-75 CNS
MCF7 breast = system: MCF7 breast
HOP-92 NSCLC = system: HOP-92 NSCLC
SK-MEL-2 melanoma = system: SK-MEL-2 melanoma
MOLT-4 leukemia = system: MOLT-4 leukemia
K-562 leukemia = system: K-562 leukemia
IGROV1 ovarian = system: IGROV1 ovarian
NCI-H23 lung = system: NCI-H23 lung
M14 melanoma = system: M14 melanoma
ACHN renal = system: ACHN renal
NCI/ADR-RES ovarian = system: NCI/ADR-RES ovarian
PC-3 prostate = system: PC-3 prostate
SR leukemia = system: SR leukemia
TK-10 renal = system: TK-10 renal
NCI-H522 lung = system: NCI-H522 lung
DU-145 prostate = system: DU-145 prostate
OVCAR-8 ovarian = system: OVCAR-8 ovarian
EKVX NSCLC = system: EKVX NSCLC
MDA-MB-435 = system: MDA-MB-435
HCT-15 colon = system: HCT-15 colon
NCI-H460 lung = system: NCI-H460 lung
BT-549 breast = system: BT-549 breast
SF-268 CNS = system: SF-268 CNS
A498 renal = system: A498 renal
HCC-2998 colon = system: HCC-2998 colon
T-47D breast = system: T-47D breast
UACC-62 melanoma = system: UACC-62 melanoma
HOP-62 NSCLC = system: HOP-62 NSCLC
SNB-19 CNS = system: SNB-19 CNS
U251 CNS = system: U251 CNS
SK-MEL-5 melanoma = system: SK-MEL-5 melanoma

Question: With `O=C(Oc1ccccc1Cl)c1ccccc1Nc1ccnc(C(F)(F)F)c1` as the compound, how does the GI50 (HCT-116 colon) read?
Answer: 1780 nM

Question: What about the TGI (HCT-116 colon) of the same compound?
Answer: 3650 nM

Question: What about the GI50 (SF-295 CNS) of the same compound?
Answer: 270 nM

Question: What about the TGI (SF-295 CNS) of the same compound?
Answer: 1090 nM

Question: And the GI50 (SF-539 CNS)?
Answer: 383 nM

Question: What about the TGI (SF-539 CNS) of the same compound?
Answer: 1880 nM

Question: What about the GI50 (NCI-H226 lung) of the same compound?
Answer: 286 nM

Question: What about the TGI (NCI-H226 lung) of the same compound?
Answer: 915 nM

Question: What about the GI50 (OVCAR-3 ovarian) of the same compound?
Answer: 247 nM

Question: And the TGI (OVCAR-3 ovarian)?
Answer: 533 nM

Question: And the GI50 (SN12C renal)?
Answer: 289 nM

Question: And the TGI (SN12C renal)?
Answer: 2570 nM

Question: What about the GI50 (HL-60(TB) leukemia) of the same compound?
Answer: 472 nM

Question: What about the TGI (HL-60(TB) leukemia) of the same compound?
Answer: > 100000 nM

Question: What about the GI50 (UO-31 renal) of the same compound?
Answer: 9630 nM

Question: And the TGI (UO-31 renal)?
Answer: > 57900 nM

Question: And the GI50 (SK-OV-3 ovarian)?
Answer: 8020 nM

Question: What about the TGI (SK-OV-3 ovarian) of the same compound?
Answer: 46400 nM

Question: And the GI50 (HS 578T breast)?
Answer: 20000 nM

Question: And the TGI (HS 578T breast)?
Answer: 74100 nM

Question: What about the GI50 (CAKI-1 renal) of the same compound?
Answer: 599 nM

Question: What about the TGI (CAKI-1 renal) of the same compound?
Answer: 1760 nM

Question: What about the GI50 (OVCAR-5 ovarian) of the same compound?
Answer: 459 nM

Question: And the TGI (OVCAR-5 ovarian)?
Answer: 24400 nM

Question: What about the GI50 (MDA-MB-231 breast) of the same compound?
Answer: 202 nM

Question: And the TGI (MDA-MB-231 breast)?
Answer: 502 nM

Question: What about the GI50 (A549 NSCLC) of the same compound?
Answer: 1360 nM

Question: What about the TGI (A549 NSCLC) of the same compound?
Answer: 21500 nM

Question: And the GI50 (HT29 colon)?
Answer: 389 nM

Question: And the TGI (HT29 colon)?
Answer: > 100000 nM

Question: What about the GI50 (SW-620 colon) of the same compound?
Answer: 150 nM

Question: What about the TGI (SW-620 colon) of the same compound?
Answer: 20000 nM

Question: And the GI50 (RPMI-8226 leukemia)?
Answer: 106 nM

Question: What about the TGI (RPMI-8226 leukemia) of the same compound?
Answer: 385 nM

Question: What about the GI50 (LOX IMVI melanoma) of the same compound?
Answer: 26.1 nM

Question: And the TGI (LOX IMVI melanoma)?
Answer: 86.4 nM

Question: And the GI50 (CCRF-CEM leukemia)?
Answer: 32.4 nM

Question: What about the GI50 (786-0 renal) of the same compound?
Answer: 859 nM

Question: And the TGI (786-0 renal)?
Answer: 2390 nM

Question: And the GI50 (KM12 colon)?
Answer: 299 nM

Question: And the TGI (KM12 colon)?
Answer: 1360 nM

Question: And the GI50 (SNB-75 CNS)?
Answer: 676 nM

Question: What about the TGI (SNB-75 CNS) of the same compound?
Answer: 27000 nM

Question: And the GI50 (MCF7 breast)?
Answer: 1010 nM

Question: What about the TGI (MCF7 breast) of the same compound?
Answer: > 30800 nM

Question: What about the GI50 (HOP-92 NSCLC) of the same compound?
Answer: 271 nM

Question: And the TGI (HOP-92 NSCLC)?
Answer: 13400 nM

Question: And the GI50 (SK-MEL-2 melanoma)?
Answer: 26400 nM

Question: And the TGI (SK-MEL-2 melanoma)?
Answer: > 100000 nM

Question: And the GI50 (MOLT-4 leukemia)?
Answer: 258 nM

Question: And the GI50 (K-562 leukemia)?
Answer: 76.8 nM

Question: And the TGI (K-562 leukemia)?
Answer: 3390 nM

Question: What about the GI50 (IGROV1 ovarian) of the same compound?
Answer: 16300 nM

Question: What about the TGI (IGROV1 ovarian) of the same compound?
Answer: > 100000 nM

Question: And the GI50 (NCI-H23 lung)?
Answer: 42.8 nM

Question: And the TGI (NCI-H23 lung)?
Answer: 248 nM

Question: And the GI50 (M14 melanoma)?
Answer: 252 nM

Question: And the TGI (M14 melanoma)?
Answer: 913 nM

Question: What about the GI50 (ACHN renal) of the same compound?
Answer: 281 nM

Question: What about the TGI (ACHN renal) of the same compound?
Answer: 808 nM

Question: What about the GI50 (NCI/ADR-RES ovarian) of the same compound?
Answer: 269 nM

Question: And the TGI (NCI/ADR-RES ovarian)?
Answer: 698 nM

Question: And the GI50 (PC-3 prostate)?
Answer: 306 nM

Question: What about the TGI (PC-3 prostate) of the same compound?
Answer: 3550 nM

Question: And the GI50 (SR leukemia)?
Answer: 28.2 nM

Question: What about the TGI (SR leukemia) of the same compound?
Answer: > 100000 nM

Question: And the GI50 (TK-10 renal)?
Answer: 415 nM

Question: What about the TGI (TK-10 renal) of the same compound?
Answer: 4610 nM

Question: What about the GI50 (NCI-H522 lung) of the same compound?
Answer: 380 nM

Question: What about the TGI (NCI-H522 lung) of the same compound?
Answer: > 70300 nM

Question: And the GI50 (DU-145 prostate)?
Answer: 3420 nM

Question: What about the TGI (DU-145 prostate) of the same compound?
Answer: 13300 nM

Question: And the GI50 (OVCAR-8 ovarian)?
Answer: 366 nM

Question: What about the TGI (OVCAR-8 ovarian) of the same compound?
Answer: 14300 nM

Question: And the GI50 (EKVX NSCLC)?
Answer: 6850 nM

Question: What about the TGI (EKVX NSCLC) of the same compound?
Answer: 26000 nM

Question: And the GI50 (MDA-MB-435)?
Answer: 107 nM

Question: What about the TGI (MDA-MB-435) of the same compound?
Answer: 297 nM

Question: And the GI50 (HCT-15 colon)?
Answer: 219 nM

Question: What about the TGI (HCT-15 colon) of the same compound?
Answer: 538 nM

Question: What about the GI50 (NCI-H460 lung) of the same compound?
Answer: 422 nM

Question: What about the TGI (NCI-H460 lung) of the same compound?
Answer: > 26200 nM

Question: What about the GI50 (BT-549 breast) of the same compound?
Answer: 635 nM

Question: And the TGI (BT-549 breast)?
Answer: 20600 nM

Question: And the GI50 (SF-268 CNS)?
Answer: 710 nM

Question: What about the GI50 (A498 renal) of the same compound?
Answer: 3920 nM

Question: What about the TGI (A498 renal) of the same compound?
Answer: 17600 nM

Question: What about the GI50 (HCC-2998 colon) of the same compound?
Answer: 2220 nM

Question: What about the TGI (HCC-2998 colon) of the same compound?
Answer: 5260 nM

Question: What about the GI50 (T-47D breast) of the same compound?
Answer: 31200 nM

Question: And the TGI (T-47D breast)?
Answer: > 100000 nM

Question: And the GI50 (UACC-62 melanoma)?
Answer: 165 nM

Question: What about the TGI (UACC-62 melanoma) of the same compound?
Answer: 2050 nM

Question: And the GI50 (HOP-62 NSCLC)?
Answer: 2690 nM

Question: And the TGI (HOP-62 NSCLC)?
Answer: 7860 nM

Question: What about the GI50 (SNB-19 CNS) of the same compound?
Answer: 7430 nM

Question: What about the TGI (SNB-19 CNS) of the same compound?
Answer: > 100000 nM

Question: What about the GI50 (U251 CNS) of the same compound?
Answer: 271 nM

Question: And the TGI (U251 CNS)?
Answer: 808 nM

Question: What about the GI50 (SK-MEL-5 melanoma) of the same compound?
Answer: 264 nM

Question: And the TGI (SK-MEL-5 melanoma)?
Answer: 545 nM

From PubChem BioAssay (NCI)
